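Grown in 96-well plates, cells were treated for 48 hours with each compound at five concentrations. Insufficient inhibition: endpoint recorded as highest concentration tested. GI50 marks 50% less growth.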 Calls of active or inactive are those of the source. No stated cut-off is given here; in the data, active = GI50 up to about 1.1 µM and inactive = higher.
Experiments:
Test in all cases: NCI anticancer screen, dose series, 48 h
ACHN = tested on: ACHN
COLO 205 = tested on: COLO 205
HCC 2998 = tested on: HCC 2998
HL-60 = tested on: HL-60
HOP-62 = tested on: HOP-62
OVCAR-4 = tested on: OVCAR-4
SF-268 = tested on: SF-268
SF-295 = tested on: SF-295
SF-539 = tested on: SF-539
SK-OV-3 = tested on: SK-OV-3
SN12C = tested on: SN12C
SNB-19 = tested on: SNB-19
SNB-75 = tested on: SNB-75
SR = tested on: SR
TK-10 = tested on: TK-10
UO-31 = tested on: UO-31
UACC-257 = tested on: UACC-257

Measured: GI50

CC1=COC(=O)c2ccccc2N1
inactive: ACHN > 100 µM | COLO 205 > 100 µM | HCC 2998 > 100 µM | HL-60 > 100 µM | HOP-62 > 100 µM | OVCAR-4 > 100 µM | SF-268 > 100 µM | SF-295 > 100 µM | SF-539 > 100 µM | SK-OV-3 > 100 µM | SN12C > 100 µM | SNB-19 > 100 µM | SNB-75 > 100 µM | SR > 100 µM | TK-10 > 100 µM | UO-31 > 100 µM

CCOC(=O)C(C(=O)c1ccccc1)=C1NCCN1
inactive: ACHN > 100 µM | COLO 205 > 100 µM | HCC 2998 > 100 µM | HL-60 > 100 µM | HOP-62 > 100 µM | OVCAR-4 > 100 µM | SF-268 > 100 µM | SF-295 > 100 µM | SF-539 > 100 µM | SN12C > 100 µM | SNB-19 > 100 µM | SR > 100 µM | UACC-257 > 100 µM | UO-31 > 100 µM

CCCCN(CC)C(=O)C(=O)C1C(=O)Nc2ccccc2[S+]1[O-] (stereo not given)
inactive: ACHN > 100 µM | COLO 205 > 100 µM | HCC 2998 > 100 µM | HOP-62 > 100 µM | OVCAR-4 > 100 µM | SF-268 > 100 µM | SF-539 > 100 µM | SK-OV-3 > 100 µM | SN12C > 100 µM | SNB-19 > 100 µM | SNB-75 > 100 µM | TK-10 > 100 µM | UACC-257 > 100 µM | UO-31 > 100 µM

O=C1C2C3CC4C5C3C1C5C1(SCCS1)C42 (stereo not given)
inactive: ACHN > 100 µM | COLO 205 > 100 µM | HCC 2998 > 100 µM | HL-60 > 100 µM | HOP-62 > 100 µM | OVCAR-4 > 100 µM | SF-268 > 100 µM | SF-539 > 100 µM | SK-OV-3 > 100 µM | SN12C > 100 µM | SNB-19 > 100 µM | SNB-75 > 100 µM | SR > 100 µM | TK-10 > 100 µM | UACC-257 > 100 µM | UO-31 > 100 µM

CCN(CC)CCn1c2c3ccccc3ccc2c2oc(=O)c3ccccc3c21
inactive: ACHN > 100 µM | COLO 205 > 100 µM | HL-60 > 100 µM | HOP-62 18.3 µM | OVCAR-4 28.1 µM | SF-268 82.2 µM | SF-295 56.2 µM | SF-539 22.6 µM | SK-OV-3 > 100 µM | SNB-19 80 µM | SNB-75 15.9 µM | SR 34.7 µM | TK-10 > 100 µM | UACC-257 > 100 µM | UO-31 > 100 µM

O=c1cc(O)cc2n1CCC2
inactive: ACHN > 100 µM | COLO 205 > 100 µM | HCC 2998 > 100 µM | HOP-62 > 100 µM | SF-268 > 100 µM | SF-295 > 100 µM | SF-539 > 100 µM | SK-OV-3 > 100 µM | SN12C > 100 µM | SNB-19 > 100 µM | SNB-75 > 100 µM | TK-10 > 100 µM | UACC-257 > 100 µM | UO-31 > 100 µM

COc1ccc(S(=O)(=O)N(CC(=O)O)c2ccccc2)cc1
inactive: ACHN > 100 µM | COLO 205 > 100 µM | HCC 2998 > 100 µM | HL-60 > 100 µM | OVCAR-4 > 100 µM | SF-268 > 100 µM | SF-295 > 100 µM | SF-539 > 100 µM | SK-OV-3 > 100 µM | SN12C > 100 µM | SNB-19 > 100 µM | SNB-75 67.3 µM | TK-10 > 100 µM | UACC-257 > 100 µM | UO-31 > 100 µM

Cc1cc(O)nc(CNC(=O)Cc2ccccc2)n1
inactive: ACHN > 100 µM | COLO 205 > 100 µM | HCC 2998 > 100 µM | HL-60 > 100 µM | HOP-62 > 100 µM | OVCAR-4 > 100 µM | SF-268 > 100 µM | SF-295 > 100 µM | SF-539 > 100 µM | SK-OV-3 > 100 µM | SN12C > 100 µM | SNB-19 > 100 µM | SNB-75 > 100 µM | TK-10 > 100 µM | UACC-257 > 100 µM | UO-31 > 100 µM

CCCCNC(=O)NNC(=O)c1cc(/C=C/c2cccc([N+](=O)[O-])c2)ncn1
inactive: ACHN > 100 µM | COLO 205 > 100 µM | HCC 2998 > 100 µM | HL-60 > 100 µM | HOP-62 > 100 µM | SF-268 > 100 µM | SF-295 > 100 µM | SK-OV-3 > 100 µM | SN12C > 100 µM | SNB-19 > 100 µM | SNB-75 > 100 µM | SR 34.8 µM | TK-10 > 100 µM | UACC-257 > 100 µM | UO-31 > 100 µM
